Assay results taken from publication PMC8228600, “Design, Synthesis, In Vitro and In Vivo Evaluation of Heterobivalent SiFAlin-Modified Peptidic Radioligands Targeting Both Integrin αvβ3 and the MC1 Receptor—Suitable for the Specific Visualization of Melanomas?” (Pharmaceuticals, 2021).

Tests used:
[1] = Stability of radiotracers in human serum (radio-HPLC); format: in vitro ADME; details: 37 °C, 120 min, mean ± SD, read-out: Stability: intact radiotracer after 120 min of incubation in human serum
Protocol: In addition to the investigation of the radiotracers’ lipophilicity, their stability in human serum was evaluated in order to determine possible stability issues of the newly developed agents. For this purpose, the respective ^18F-labeled HBPLs were incubated in human serum at 37 °C for 120 min. The results of these experiments are summarized in Table 1, and the corresponding radio-HPLC chromatograms for [^18F]2 as representative examples for all compounds studied are depicted in Figure 3A (see Supplementary Materials, Figure S91 for the results obtained for the other radioligands). In Figure 3B, the portions of intact radiotracer over the course of the stability experiments are depicted.
The radiotracer solutions were first diluted with 0.9% NaCl solution to give a final EtOH concentration of <10%. Then, 6 × 25 μL radiotracer solution was added to 6 × 100 μL human serum and incubated at 37°C for 120 min. At defined time points (5, 15, 30, 60, 90 and 120 min), 125 μL EtOH was added to one of the mixtures and the precipitation of serum proteins was supported by ice-cooling for 2 min. After centrifugation at 13.4 rpm for 2 min, the supernatant was analyzed by analytical radio-HPLC (0–100% MeCN + 0.1% TFA in 5 min). The experiment was performed for each compound trice by three independent experiments.

[2] = logD(7.4) determination (n-octanol / phosphate buffer distribution); format: physicochemical; details: n-octanol / 0.05 M phosphate buffer pH 7.4; mean ± SD
Protocol: Since high lipophilicity of peptidic radiotracers can lead to a high plasma protein binding, resulting in unspecific organ and high liver uptakes, thus negatively impact tumor visualization, the lipophilicity of the HBPLs was determined to get an approximate estimation of the in vivo biodistribution behavior of the radioligands. Therefore, the logD(7.4) values of the SiFAlin-modified HBPLs [^18F]1–[^18F]6 were determined via their distribution coefficient between n-octanol and phosphate buffer at pH 7.4.
The radiotracer solutions were first diluted with 0.9% NaCl solution to give a final EtOH concentration of <10%. A total of 5 MBq of the respective radiotracer in solution was added to 1.6 mL of a mixture of n-octanol and 0.05 M phosphate buffer (pH = 7.4) (v/v, 1/1), and the solution was vigorously shaken for 5 min. Subsequently, the phases were separated by centrifugation at 13.4 rpm for 2 min, and 100 μL of organic and aqueous phases were collected. The activity of each sample was measured using a gamma counter. The lipophilicity of each compound was determined in triplicate in three independent experiments.

[3] = tested on: B16F10 and U87MG tumors; assay: In vivo dynamic PET/CT imaging and time–activity curves; parameters: species or system nude mice (Balb/cAnNRj-Foxn1nu/nu); details: for visualization of B16F10 and U87MG tumors by PET/CT: PET/CT scans, MIPs 50–90 min post-injection; for time at which uptakes in kidneys and liver reached their maximum (TACs) / time at which the curves of both tumors approached a plateau (TACs): dynamic PET over 90 min, i.v.; for time at which the curves of both tumors approached a plateau (TACs): B16F10 and U87MG tumors
Protocol: (§1) For the evaluation of the in vivo pharmacokinetics, the two most promising HBPLs—[^18F]2 with the highest affinity to both target receptors and [^18F]4 with the highest hydrophilicity and still reasonable binding affinities—were selected. For PET/CT imaging, 6-week-old male nude mice (Balb/cAnNRj-Foxn1^nu/nu) were subcutaneously injected with 5 × 10^5 B16F10 cells into the right flank and 2.0–2.5 × 10^6 U87MG cells into the left flank to generate the respective receptor-positive tumors. When the tumors reached a sufficient size for imaging, each mouse was administered 4.15 ± 2.28 MBq of [^18F]2 or 3.95 ± 2.06 MBq of [^18F]4 via the lateral tail vein under isoflurane anesthesia. To determine the receptor specificity of both peptide parts of the labeled HBPLs and their relative contribution to overall tumor uptake, blocking experiments were also performed. […] After i.v. injection of the tracers, a dynamic PET scan, followed by a CT scan, was performed. The resulting PET/CT images and time–activity curves (TACs) are depicted in Figure 6, Figure 7 and Figure 8. After completion of the diagnostic scans, the mice were sacrificed, their organs (blood, spleen, liver, kidney, pancreas, lung, heart, brain, bone, muscle, tail, tumors, stomach, colon and small intestine) were collected and measured in a γ-counter for ex vivo biodistribution (see Supplementary Materials Table S1 for detailed results).
Briefly, 4–5-week-old male nude mice (Balb/cAnNRj-Foxn1^nu/nu) were obtained from Janvier. A dynamic PET scan over 90 min and a subsequent CT image over 20 min were acquired using a triple-modality Bruker Albira II small-animal PET/CT/SPECT scanner. Three animals were studied per group.
(§2) Each male nude mouse (six weeks old) was injected subcutaneously with 5 × 10^5 B16F10 cells into the right flank and 2.0–2.5 × 10^6 U87MG cells into the left flank. The health status and tumor growth of the mice were monitored regularly until the animals could be examined after 15–21 days, depending on the tumor size. For the in vivo experiments, the ^18F-radiolabeled compound was diluted in 0.9% saline to give a final EtOH concentration of <10%. Each mouse was injected with 4.15 ± 2.28 MBq of [^18F]2 or 3.95 ± 2.06 MBq of [^18F]4 via the lateral tail vein under isoflurane anesthesia. […] Each ^18F-labeled compound was studied with or without blocking in at least three mice. Mice were measured under isoflurane anesthesia in a small PET/SPECT/CT animal imaging system. First, a dynamic PET scan was performed over 90 min and the scan was framed in 29 timeframes (10 × 1 min, 10 × 2 min, 6 × 5 min, 3 × 10 min). Images were reconstructed using 12 iterations, a maximum likelihood expectation maximization (MLEM) algorithm including corrections for scattered radiation and decay and a voxel size of 0.5 mm. All PET scans were immediately followed by CT acquisition at a voltage of 45 kV and a current of 400 μA. The images were reconstructed using the filtered back projection (FBP) algorithm with a voxel size of 250 μm. The analysis of the data, including the generation of TACs of the kidneys, liver and tumors and the MIPs, was performed via PMOD (v3.8). For ex vivo biodistribution, the mice were sacrificed directly after the PET/CT scan. Organs (blood, spleen, liver, kidneys, pancreas, lungs, heart, brain, bone, muscle, tail, tumors, stomach, colon and small intestine) were collected, weighed and their radioactivity measured in a γ-counter. The percentage injected dose per gram (% ID/g) of each tissue was calculated from the determined values, organ weights, reference values and injected activity.

[4] = tested on: integrin αvβ3-positive U87MG tumors; assay: Ex vivo biodistribution: uptake in U87MG tumors and tumor-to-organ ratios; parameters: species or system nude mice (Balb/cAnNRj-Foxn1nu/nu); details: c(RGDyK) blocking (200 μg coinjected); ex vivo after PET/CT scan; i.v.; n = 3
Protocol: as §1, §2

## CCCC[C@H](NC(=O)CNC(=O)CNC(=O)CCOCCOCCOCCOCCC(=O)NCCCN(CCCNC(=O)CCOCCOCCOCCOCCC(=O)NCCCC[C@@H]1NC(=O)[C@@H](Cc2ccccc2)NC(=O)[C@H](CC(=O)O)NC(=O)CNC(=O)[C@H](CCCNC(=N)N)NC1=O)CC(=O)N[C@@H](CCCCNC(=O)CCC[N+](C)(C)Cc1ccc([Si](F)(C(C)(C)C)C(C)(C)C)cc1)C(N)=O)C(=O)N[C@H]1CC(=O)NCCCC[C@@H](C(N)=O)NC(=O)[C@H](Cc2c[nH]c3ccccc23)NC(=O)[C@H](CCCNC(=N)N)NC(=O)[C@@H](Cc2ccccc2)NC(=O)[C@H](Cc2c[nH]cn2)NC1=O [[^18F]2]
[1]
  remaining at 2 h: 85.4 ± 2.8%
[2]
  logD: -1.19 ± 0.05
[3]
  visualization of B16F10 and U87MG tumors by PET/CT: clearly visualize
  time at which uptakes in kidneys and liver reached their maximum (TACs): 5 to 10 min
  time at which the curves of both tumors approached a plateau (TACs): about 70 min
[4]
  ID/g, U87MG tumor: 1.48 ± 0.12 % ID/g

## CCCC[C@H](NC(=O)CNC(=O)CNC(=O)CCOCCOCCOCCOCCOCCOCCOCCOCCOCCC(=O)NCCCN(CCCNC(=O)CCOCCOCCOCCOCCOCCOCCOCCOCCOCCC(=O)NCCCC[C@@H]1NC(=O)[C@@H](Cc2ccccc2)NC(=O)[C@H](CC(=O)O)NC(=O)CNC(=O)[C@H](CCCNC(=N)N)NC1=O)CC(=O)N[C@@H](CCCCNC(=O)CCC[N+](C)(C)Cc1ccc([Si](F)(C(C)(C)C)C(C)(C)C)cc1)C(N)=O)C(=O)N[C@H]1CC(=O)NCCCC[C@@H](C(N)=O)NC(=O)[C@H](Cc2c[nH]c3ccccc23)NC(=O)[C@H](CCCNC(=N)N)NC(=O)[C@@H](Cc2ccccc2)NC(=O)[C@H](Cc2c[nH]cn2)NC1=O [[^18F]4]
[1]
  remaining at 2 h: 83.6 ± 0.8%
[2]
  logD: -1.39 ± 0.03
[3]
  visualization of B16F10 and U87MG tumors by PET/CT: clearly visualize
  time at which uptakes in kidneys and liver reached their maximum (TACs): 5 to 10 min
  time at which the curves of both tumors approached a plateau (TACs): about 70 min
[4]
  ID/g, U87MG tumor: 2.67 ± 0.66 % ID/g
